According to patent publication US4563472A, “Iodoallyl and iodopropargyl substituted tetrazoles and anti-microbial compositions thereof” (Meiji Seika Kaisha, Ltd., priority 1982, dated 1986):
In brackets after ≈: the same amount, converted by molar mass. Like-named read-outs stand apart in the source and are kept apart here.

Key:
Phricularia oryzae = experiment: Antibacterial and Antifungal Activities (in Agricultural Field), MIC; format: cell-based; settings: read-out: Minimal Inhibitory Conc. (MIC)
Gibberella fujikuroi = experiment: as above; format: cell-based; settings: Fusarium fujikuroi, read-out: Minimal Inhibitory Conc. (MIC)
[1] = tested on: Colletotrichum lagenarium; experiment: as above; format: cell-based; settings: Colletotrichum orbiculare, read-out: Minimal Inhibitory Conc. (MIC)
[2] = tested on: Chaetomium globosum ATCC 6205; experiment: Antifungal Activity (in Industrial Field), MIC; format: cell-based; settings: ATCC6205, read-out: Minimal Inhibitory Conc. (MIC)
Proteus vulgaris OX-19 = experiment: Antibacterial Activity (in medicinal field), MIC; format: cell-based; settings: OX19, read-out: Minimal Inhibitory Conc. (MIC)
[3] = tested on: Aspergillus fumigatus IAM 2621; experiment: Antifungal Activity (in Industrial Field), MIC; format: cell-based; settings: IAM2621, read-out: Minimal Inhibitory Conc. (MIC)
[4] = tested on: Staphylococcus epidermidis ATCC 14990; experiment: Antibacterial Activity (in medicinal field), MIC; format: cell-based
[5] = tested on: Aspergillus fumigatus Saito; experiment: Antifungal Activity (in Medicinal Field), MIC; format: cell-based; settings: read-out: Minimal Inhibitory Conc. (MIC)
Mucor spinescens IAM Mu3 = experiment: Antifungal Activity (in Industrial Field), MIC; format: cell-based; settings: IAMMU3, read-out: Minimal Inhibitory Conc. (MIC)
[6] = tested on: Cladosporium herbarum IAM F-517; experiment: Antifungal Activity (in Industrial Field), MIC; format: cell-based; settings: IAMF517, read-out: Minimal Inhibitory Conc. (MIC)
Erwinia carotovora = experiment: Antibacterial and Antifungal Activities (in Agricultural Field), MIC; format: cell-based; settings: Pectobacterium carotovorum, read-out: Minimal Inhibitory Conc. (MIC)
[7] = tested on: Trichophyton metagrophytes 530324; experiment: Antifungal Activity (in Medicinal Field), MIC; format: cell-based; settings: Trichophyton metagrophytes 530324; read-out: Minimal Inhibitory Conc. (MIC)
Candida alubicans GA-24 = experiment: Antifungal Activity (in Medicinal Field), MIC; format: cell-based; settings: GA24; Candida alubicans GA-24; read-out: Minimal Inhibitory Conc. (MIC)
[8] = tested on: Trichophyton interdigitale; experiment: Antifungal Activity (in Medicinal Field), MIC; format: cell-based; settings: read-out: Minimal Inhibitory Conc. (MIC)
[9] = tested on: Pseudomonas cepacia M-0527; experiment: Antibacterial Activity (in medicinal field), MIC; format: cell-based; settings: Burkholderia cepacia, M0527, read-out: Minimal Inhibitory Conc. (MIC)
[10] = tested on: Xanthomonas campestris pv. citri; experiment: Antibacterial and Antifungal Activities (in Agricultural Field), MIC; format: cell-based; settings: read-out: Minimal Inhibitory Conc. (MIC)
Pellicularia filamentosa = experiment: as above; format: cell-based; settings: read-out: Minimal Inhibitory Conc. (MIC)
[11] = tested on: Trichoderma T-1 ATCC 9645; experiment: Antifungal Activity (in Industrial Field), MIC; format: cell-based; settings: ATCC9645, read-out: Minimal Inhibitory Conc. (MIC)
[12] = tested on: Staphylococcus faecalis ATCC 8043; experiment: Antibacterial Activity (in medicinal field), MIC; format: cell-based; settings: ATCC8043, read-out: Minimal Inhibitory Conc. (MIC)
[13] = tested on: Fusarium oxysporum f. lycopersici; experiment: Antibacterial and Antifungal Activities (in Agricultural Field), MIC; format: cell-based; settings: read-out: Minimal Inhibitory Conc. (MIC)
[14] = tested on: Corynebacterium michiganense; experiment: as above; format: cell-based; settings: Clavibacter michiganensis, read-out: Minimal Inhibitory Conc. (MIC)
[15] = tested on: Cryptococcus neoformans Cr-1; experiment: Antifungal Activity (in Medicinal Field), MIC; format: cell-based; settings: CR1, read-out: Minimal Inhibitory Conc. (MIC)
[16] = tested on: Trichophyton mentagrophytes; experiment: Therapeutic experiment on trichophytosis in guinea pigs, visual observation; format: in vivo, guinea pigs (White Hartly-strain); settings: 1% preparation, 0.25 ml once per day, 8 consecutive days
[17] = tested on: Penicillium luteum ATCC 9644; experiment: Antifungal Activity (in Industrial Field), MIC; format: cell-based; settings: Ascospirella lutea, ATCC9644, read-out: Minimal Inhibitory Conc. (MIC)
[18] = tested on: Staphylococcus aureus 209P JC-1; experiment: Antibacterial Activity (in medicinal field), MIC; format: cell-based; settings: read-out: Minimal Inhibitory Conc. (MIC)
[19] = tested on: Xanthomonas campestris pv. oryzae; experiment: microbe, parasite or virus in culture; format: cell-based; settings: read-out: Minimal Inhibitory Conc. (MIC)
[20] = tested on: Pullularia pullulans IAM F-24; experiment: Antifungal Activity (in Industrial Field), MIC; format: cell-based; settings: IAMF24; Pullularia pullulans IAM F-24; read-out: Minimal Inhibitory Conc. (MIC)
[21] = tested on: Escherichia coli NIHJ JC-2; experiment: Antibacterial Activity (in medicinal field), MIC; format: cell-based; settings: NIHJJC2, read-out: Minimal Inhibitory Conc. (MIC)
Alternaria kikuchiana = experiment: Antibacterial and Antifungal Activities (in Agricultural Field), MIC; format: cell-based; settings: read-out: Minimal Inhibitory Conc. (MIC)
[22] = tested on: Pseudomonas syringae pv. tabaci; experiment: as above; format: cell-based; settings: read-out: Minimal Inhibitory Conc. (MIC)
[23] = tested on: Shigella sonnei EW 33 Type I; experiment: Antibacterial Activity (in medicinal field), MIC; format: cell-based; settings: EW33TYPEI, read-out: Minimal Inhibitory Conc. (MIC)
Diaporithe citri = experiment: Antibacterial and Antifungal Activities (in Agricultural Field), MIC; format: cell-based; settings: read-out: Minimal Inhibitory Conc. (MIC)
Glomerella cingulata = experiment: as above; format: cell-based; settings: Colletotrichum gloeosporioides, read-out: Minimal Inhibitory Conc. (MIC)
[24] = tested on: Serratia marcescens MB-3848; experiment: Antibacterial Activity (in medicinal field), MIC; format: cell-based; settings: MB3848, read-out: Minimal Inhibitory Conc. (MIC)
[25] = tested on: Aspergillus flavus ATCC 6275; experiment: Antifungal Activity (in Industrial Field), MIC; format: cell-based; settings: ATCC6275, read-out: Minimal Inhibitory Conc. (MIC)
[26] = tested on: Trichophyton mentagrophytes; experiment: Reducing culture positive rate of skin slices from infected guinea pigs; format: in vivo, guinea pigs (White Hartly-strain); set-up: concentration or dose not given beside the values; settings: after 8 days application, non-treated 100
Cochliobolus miyabeanus = experiment: Antibacterial and Antifungal Activities (in Agricultural Field), MIC; format: cell-based; settings: Bipolaris oryzae, read-out: Minimal Inhibitory Conc. (MIC)
Botrytis cinerea = experiment: as above; format: cell-based; settings: read-out: Minimal Inhibitory Conc. (MIC)
[27] = tested on: Aspergillus terreus PQMD 82 j; experiment: Antifungal Activity (in Industrial Field), MIC; format: cell-based; settings: PQMD82J, read-out: Minimal Inhibitory Conc. (MIC)
[28] = tested on: Klebsiella pneumoniae PCI-602; experiment: Antibacterial Activity (in medicinal field), MIC; format: cell-based; settings: PCI602, read-out: Minimal Inhibitory Conc. (MIC)
[29] = Staphylococcus epidermidis, ATCC14990, read-out: Minimal Inhibitory Conc. (MIC)

O=[N+]([O-])c1cn(CC(I)=C(I)I)c(Cl)c1Cl [1-(2',3',3'-triiodoallyl)-2,3-dichloro-4-nitropyrrole]
MIC (Phricularia oryzae): 6.25 µg/mL (≈ 10.4 µM)
MIC (Gibberella fujikuroi): 3.12 µg/mL (≈ 5.21 µM)
MIC [1]: 1.56 µg/mL (≈ 2.61 µM)
MIC [2]: 50 µg/mL (≈ 83.5 µM)
MIC (Proteus vulgaris OX-19): 6.25 µg/mL (≈ 10.4 µM)
MIC [3]: 25 µg/mL (≈ 41.8 µM)
MIC [4, 29]: 31.2 µg/mL (≈ 52.1 µM)
MIC [5]: 0.19 µg/mL (≈ 0.317 µM)
MIC (Mucor spinescens IAM Mu3): > 50 µg/mL
MIC [6]: 0.2 µg/mL (≈ 0.334 µM)
MIC (Erwinia carotovora): > 50 µg/mL
MIC [7]: 0.19 µg/mL (≈ 0.317 µM)
MIC (Candida alubicans GA-24): 0.39 µg/mL (≈ 0.651 µM)
MIC [8]: 1.56 µg/mL (≈ 2.61 µM)
MIC [9]: 6.25 µg/mL (≈ 10.4 µM)
MIC [10]: > 50 µg/mL
MIC (Pellicularia filamentosa): > 50 µg/mL
MIC [11]: 6.25 µg/mL (≈ 10.4 µM)
MIC [12]: 31.2 µg/mL (≈ 52.1 µM)
MIC [13]: 6.25 µg/mL (≈ 10.4 µM)
MIC [14]: 6.25 µg/mL (≈ 10.4 µM)
MIC [15]: 0.19 µg/mL (≈ 0.317 µM)
Therapeutic Effect: Desquamation [16]: effective
Therapeutic Effect: Thickening [16]: effective
MIC [17]: 6.25 µg/mL (≈ 10.4 µM)
MIC ([18]; Staphylococcus aureus, 209P): 31.2 µg/mL (≈ 52.1 µM)
MIC [19]: > 50 µg/mL
MIC [20]: > 50 µg/mL
MIC [21]: 12.5 µg/mL (≈ 20.9 µM)
MIC (Alternaria kikuchiana): 6.25 µg/mL (≈ 10.4 µM)
MIC [22]: > 50 µg/mL
MIC ([23]; Shigella sonnei EW 33 Type I): 6.25 µg/mL (≈ 10.4 µM)
MIC (Diaporithe citri): 0.78 µg/mL (≈ 1.3 µM)
MIC (Glomerella cingulata): 1.56 µg/mL (≈ 2.61 µM)
MIC [24]: 6.25 µg/mL (≈ 10.4 µM)
MIC [25]: 0.78 µg/mL (≈ 1.3 µM)
Reducing Culture Positive Rate ([26]; 3 days culture): 0%
Reducing Culture Positive Rate ([26]; 5 days culture): 16.7%
Reducing Culture Positive Rate ([26]; 7 days culture): 16.7%
MIC (Cochliobolus miyabeanus): 50 µg/mL (≈ 83.5 µM)
MIC (Botrytis cinerea): 12.5 µg/mL (≈ 20.9 µM)
MIC [27]: 1.56 µg/mL (≈ 2.61 µM)

O=[N+]([O-])c1cc(Cl)n(CC(I)=C(I)I)c1 [1-(2',3',3'-triiodoallyl)-2-chloro-4-nitropyrrole]
MIC [2]: 3.13 µg/mL (≈ 5.55 µM)
MIC (Proteus vulgaris OX-19): 12.5 µg/mL (≈ 22.2 µM)
MIC [3]: 0.78 µg/mL (≈ 1.38 µM)
MIC [4, 29]: 6.25 µg/mL (≈ 11.1 µM)
MIC (Mucor spinescens IAM Mu3): 3.13 µg/mL (≈ 5.55 µM)
MIC [6]: 0.2 µg/mL (≈ 0.354 µM)
MIC [9]: 12.5 µg/mL (≈ 22.2 µM)
MIC [11]: 6.25 µg/mL (≈ 11.1 µM)
MIC [12]: 6.25 µg/mL (≈ 11.1 µM)
MIC [17]: 1.56 µg/mL (≈ 2.76 µM)
MIC ([18]; Staphylococcus aureus, 209P): 6.25 µg/mL (≈ 11.1 µM)
MIC [20]: 1.56 µg/mL (≈ 2.76 µM)
MIC [21]: 12.5 µg/mL (≈ 22.2 µM)
MIC ([23]; Shigella sonnei EW 33 Type I): 12.5 µg/mL (≈ 22.2 µM)
MIC [24]: 12.5 µg/mL (≈ 22.2 µM)
MIC [25]: 0.39 µg/mL (≈ 0.691 µM)
MIC [27]: 1.56 µg/mL (≈ 2.76 µM)

O=[N+]([O-])c1nccn1CC(I)=C(I)I [1-(2',3',3'-triiodoallyl)-2-nitroimidazole]
MIC (Gibberella fujikuroi): 0.78 µg/mL (≈ 1.47 µM)
MIC [1]: 0.78 µg/mL (≈ 1.47 µM)
MIC [2]: 1.56 µg/mL (≈ 2.94 µM)
MIC (Proteus vulgaris OX-19): 6.25 µg/mL (≈ 11.8 µM)
MIC [3]: 6.25 µg/mL (≈ 11.8 µM)
MIC ([4]; ATCC14990, Staphylococcus epidermidis ATCC 14990, read-out: Minimal Inhibitory Conc. (MIC)): 12.5 µg/mL (≈ 23.5 µM)
MIC [5]: 0.78 µg/mL (≈ 1.47 µM)
MIC (Mucor spinescens IAM Mu3): 6.25 µg/mL (≈ 11.8 µM)
MIC [6]: 0.39 µg/mL (≈ 0.735 µM)
MIC (Erwinia carotovora): 12.5 µg/mL (≈ 23.5 µM)
MIC [7]: 0.78 µg/mL (≈ 1.47 µM)
MIC (Candida alubicans GA-24): 0.78 µg/mL (≈ 1.47 µM)
MIC [8]: 1.56 µg/mL (≈ 2.94 µM)
MIC [9]: 3.12 µg/mL (≈ 5.88 µM)
MIC [10]: 25 µg/mL (≈ 47.1 µM)
MIC (Pellicularia filamentosa): 25 µg/mL (≈ 47.1 µM)
MIC [11]: 6.25 µg/mL (≈ 11.8 µM)
MIC [13]: 1.56 µg/mL (≈ 2.94 µM)
MIC ([14]; Corynebacterium michiganense): 3.13 µg/mL (≈ 5.9 µM)
MIC [15]: 25 µg/mL (≈ 47.1 µM)
MIC [17]: 3.13 µg/mL (≈ 5.9 µM)
MIC ([18]; Staphylococcus aureus 209P JC-1): 12.5 µg/mL (≈ 23.5 µM)
MIC [19]: 12.5 µg/mL (≈ 23.5 µM)
MIC [20]: 3.13 µg/mL (≈ 5.9 µM)
MIC (Alternaria kikuchiana): 0.78 µg/mL (≈ 1.47 µM)
MIC [22]: 12.5 µg/mL (≈ 23.5 µM)
MIC ([23]; Shigella sonnei): 3.12 µg/mL (≈ 5.88 µM)
MIC (Diaporithe citri): 1.56 µg/mL (≈ 2.94 µM)
MIC (Glomerella cingulata): 0.78 µg/mL (≈ 1.47 µM)
MIC [25]: 1.56 µg/mL (≈ 2.94 µM)
MIC (Cochliobolus miyabeanus): 0.78 µg/mL (≈ 1.47 µM)
MIC (Botrytis cinerea): 0.19 µg/mL (≈ 0.358 µM)
MIC [27]: 0.78 µg/mL (≈ 1.47 µM)
MIC [28]: 6.25 µg/mL (≈ 11.8 µM)
